{
  "source": "patent US8007782B2",
  "about": "“Combination bacteriolytic therapy for the treatment of tumors” (priority 2003, dated 2011)",
  "key": {"[1]": {"tested_on": "HCT116 human colorectal cancer cells", "test": "Tumorigenicity assay, HCT116 xenografts in nude mice", "assay_type": "in vivo", "details": "for Effect with C. novyi-NT / Effect alone: nude mice; for Effect alone: agent alone", "text": "(§1) All animal protocols were designed in accordance with the Guide for the Care and Use of Laboratory Animals (NIH Publication 86-23) and were approved by the Johns Hopkins University Institutional Animal Care and Use Committee. Six to eight week old mice were implanted subcutaneously on one flank with 3 to 6 million cancer cells. Establishment of tumors of 150 to 500 mm3 took 8 to 21 days, depending on the cell type. C. novyi-NT spores (300×106) and anti-microtubule agents were generally administered by a single intravenous injection through the tail vein in a total volume of 300 to 500 ul phosphate-buffered saline (PBS). Quantitative assessment of tumor growth was performed by measuring subcutaneous tumor grafts (major and minor axis) using electronic calipers. Tumor volume was calculated using the equation: length×width2×0.5. Progression free survival was defined as the length of time following treatment before any increase in tumor volume was observed. Mice were considered “cured” if no tumor was evident three months after treatment. Animals were weighed at least twice a week and carefully observed for signs of toxicity every day for the first week following treatment and then twice a week thereafter. At least five mice were used for each treatment arm described in the Experimental Results.\nThe timing, route, and dose of agents are critical for the success of any experimental therapy. When two agents are combined, the number of variables that must be tested increases exponentially. To simplify interpretation of the comparisons between various anti-microtubule agents, pilot studies with representative drugs were performed.\nEighteen agents known to interact with microtubules were each tested in this manner in nude mice harboring xenografts of HCT116 human colorectal cancer cells. At least five mice harboring tumors of 150 to 500 mm3 in size were used for each experimental arm. Two classes of responses were noted. One type of response was characterized by a rapid hemorrhagic necrosis, observed only with agents that inhibited microtubule […] (FIG. 1A, B). The other type of response was characterized by a slow regression, observed with agents that stabilized microtubules (FIG. 2A, B)."}, "[2]": {"test": "Mortality following COBALT", "assay_type": "in vivo, nude mice", "details": "deaths within one week, pooled xenograft models", "text": "as §1\n(§2) This toxicity was observed only when the combination of C. novyi-NT spores and the drugs was administered and not with either the bacteria or the drugs alone. […] Though major tumor regressions were common, few mice died as a result of therapy (Table 2) No deaths occurred after treatment with the microtubule stabilizers plus C. novyi-NT, while 4% to 8% of mice treated with microtubule destabilizers plus C. novyi-NT died. The only other toxicity observed was transient weight loss (Table 3). Mice treated with the drugs alone lost ˜5 to 10% of their body weight within 7 days, while weight loss after treatment with C. novyi-NT plus these drugs varied from 8% to 18%. All weights recovered to pre-treatment levels within two weeks."}, "[3]": {"test": "Weight loss after COBALT", "assay_type": "in vivo, nude mice", "details": "drug dose 1.7 mg/kg; maximum average weight loss relative to weight one day prior to treatment; HCT116 xenografts", "text": "as §1, §2"}},
  "data": [
    {"compound": "CN[C@H](C(=O)N[C@H](C(=O)N(C)[C@H](/C=C(\\C)C(=O)O)C(C)C)C(C)(C)C)C(C)(C)c1ccccc1", "note": "[HTI-286, N,β,β-trimethyl-L-phenylalanyl-N^1-[(1S,2E)-3-carboxy-1-isopropylbut-2-enyl]-N^1,3-dimethyl-L-valinamide]", "values": [
      {"measurement": "Effect with C. novyi-NT", "setting": "[1]; 0.5 mg/kg × 1 (iv) with 3×108 C. novyi-NT spores iv", "result": "+"},
      {"measurement": "Effect with C. novyi-NT", "setting": "[1]; 1.0 mg/kg × 1 (iv) with 3×108 C. novyi-NT spores iv", "result": "+"},
      {"measurement": "Effect with C. novyi-NT", "setting": "[1]; 1.5 mg/kg × 1 (iv) with 3×108 C. novyi-NT spores iv", "result": "++ (10% to 50% shrinkage in tumor volume relative to pre-treatment size)"},
      {"measurement": "Effect with C. novyi-NT", "setting": "[1]; 1.7 mg/kg × 1 (iv) with 3×108 C. novyi-NT spores iv", "result": "++++ (>20% cures)"},
      {"measurement": "Effect with C. novyi-NT", "setting": "[1]; 1.9 mg/kg × 1 (iv) with 3×108 C. novyi-NT spores iv", "result": "++++ (>20% cures)"},
      {"measurement": "Effect with C. novyi-NT", "setting": "[1]; 2 (2.0) mg/kg × 1 (iv) with 3×108 C. novyi-NT spores iv", "result": "++++ (>20% cures)"},
      {"measurement": "Effect alone", "setting": "[1]; 0.5 mg/kg × 1 (iv)", "result": 0},
      {"measurement": "Effect alone", "setting": "[1]; 1.0 mg/kg × 1 (iv)", "result": 0},
      {"measurement": "Effect alone", "setting": "[1]; 1.5 mg/kg × 1 (iv)", "result": "+"},
      {"measurement": "Effect alone", "setting": "[1]; 1.7 mg/kg × 1 (iv)", "result": "+"},
      {"measurement": "Effect alone", "setting": "[1]; 1.9 mg/kg × 1 (iv)", "result": "++ (10% to 50% shrinkage in tumor volume relative to pre-treatment size)"},
      {"measurement": "Effect alone", "setting": "[1]; 2 (2.0) mg/kg × 1 (iv)", "result": "++ (10% to 50% shrinkage in tumor volume relative to pre-treatment size)"},
      {"measurement": "hemorrhagic necrosis", "setting": "[1]; single treatment", "result": "modest amount of hemorrhagic necrosis"},
      {"measurement": "# dead (treatment-related deaths)", "setting": "[2]; drug dose 1.7 mg/kg", "result": 3},
      {"measurement": "dead (%)", "setting": "[2]; drug dose 1.7 mg/kg", "result": 2.9, "unit": "%"},
      {"measurement": "# dead (treatment-related deaths)", "setting": "[2]; drug dose 1.9 mg/kg", "result": 3},
      {"measurement": "dead (%)", "setting": "[2]; drug dose 1.9 mg/kg", "result": 5.4, "unit": "%"},
      {"measurement": "# dead (treatment-related deaths)", "setting": "[2]; drug dose 2.0 mg/kg", "result": 5},
      {"measurement": "dead (%)", "setting": "[2]; drug dose 2.0 mg/kg", "result": 10.6, "unit": "%"},
      {"measurement": "Weight Loss (%)", "setting": "[3]", "result": 11.4, "unit": "%"}
    ]}
  ]
}
